In paper PMC5842439 (Nuclear medicine and biology, 2013):
Like-named read-outs stand apart in the source and are kept apart here.

Tested on: BT474 xenografts
Details: for tumor SUV, % of pretreatment SUV: mice without DOX (n=8), mean±SD

OC[C@H]1OC(O)[C@H]([18F])[C@@H](O)[C@@H]1O (stereo partly shown) [Agent F-18-FDG, 2’-F-18-fluorodeoxyglucose]
muscle uptake in contralateral normal thigh (PET imaging, mouse bearing BT474 tumor in the right thigh): significant
tumor SUV, % of pretreatment SUV (3rd week): 108±28%
tumor SUV, % of pretreatment SUV (5th week): 151±8%
tumor SUV, % of pretreatment SUV (7th week): 152±355%
